The values that follow come from ChEMBL document CHEMBL1201862, “PubChem BioAssay data set” (2004).

Among the test systems are HCT-15; KM12; NCI-H460; OVCAR-5; NCI-H226; SF-539; HL-60; HOP-92; COLO 205; SK-OV-3; OVCAR-3; CCRF-CEM; MDA-N; MOLT-4; 786-0; CAKI-1; EKVX; RXF 393; OVCAR-4; Malme-3M.
What all share (experiment): growth of human tumour cells (NCI), 48 h

SMILES strings stand for the structures.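 Values below derive from 48-hour exposures of cells grown in 96-well plates, with endpoints linearly interpolated between the two concentrations bracketing the appropriate inhibition level. GI50 marks 50% less growth.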 Activity calls are given as the source filed them. Rule as the data show it: active = GI50 up to about 1.1 µM and inactive = higher.

Consider `O=c1[nH]c2ccccc2c(=O)n1/N=C\c1ccccc1O`, for which the GI50 with HCT-15 is over 100 µM; in the experiment with KM12, 30.5 µM (inactive); in the experiment on NCI-H460 it was > 100 µM (inactive); in the experiment on OVCAR-5, > 100 µM (inactive); in the experiment on NCI-H226, > 100 µM (inactive); in the experiment with SF-539, > 100 µM (inactive). Besides, the GI50 in the experiment on HL-60 was 36.1 µM (inactive); in the experiment on HOP-92 it was 67 µM (inactive); with COLO 205, > 100 µM (inactive); in the experiment on SK-OV-3, > 100 µM (inactive); with OVCAR-3 it was > 100 µM (inactive); in the experiment with CCRF-CEM, > 100 µM (inactive). In addition, the GI50 in the experiment with MDA-N is > 100 µM (inactive); in the experiment with MOLT-4 it was > 100 µM (inactive); in the experiment with 786-0, > 100 µM (inactive); with CAKI-1 it was > 100 µM (inactive); in the experiment with EKVX, 22.8 µM (inactive).

Take `O=C(CSC1=NCCN1)c1ccccc1`: the GI50 in the experiment on HCT-15 is over 100 µM; with KM12, > 100 µM (inactive); with NCI-H460, > 100 µM (inactive); in the experiment with OVCAR-5, > 100 µM (inactive); with NCI-H226, > 100 µM (inactive); in the experiment on SF-539, > 100 µM (inactive). The GI50 with RXF 393 was > 100 µM (inactive); in the experiment with HL-60, < 0.01 µM (active); with HOP-92, > 100 µM (inactive); with COLO 205, > 100 µM (inactive); in the experiment with SK-OV-3, > 100 µM (inactive); with OVCAR-3 it was > 100 µM (inactive). Besides, the GI50 in the experiment on OVCAR-4, in the experiment on Malme-3M, with MDA-N, with MOLT-4, in the experiment on 786-0 and in the experiment on CAKI-1 was > 100 µM (inactive) each time. In the experiment with EKVX, the GI50 was > 100 µM (inactive).

`O=C(O)C(CCc1ccccn1)c1ccccc1` (centres undefined): the GI50 in the experiment on HCT-15 is over 100 µM; with KM12, > 100 µM (inactive); in the experiment with NCI-H460 it was > 100 µM (inactive); in the experiment with OVCAR-5 it was > 100 µM (inactive); in the experiment on NCI-H226 it was > 100 µM (inactive); in the experiment with SF-539 it was > 100 µM (inactive). Also, the GI50 is > 100 µM (inactive) in the experiment with RXF 393; 1 µM (active) in the experiment on HL-60; > 50.4 µM (inactive) in the experiment on HOP-92; > 100 µM (inactive) in the experiment with COLO 205; > 100 µM (inactive) with SK-OV-3; > 100 µM (inactive) in the experiment with OVCAR-3. Further, the GI50 in the experiment on OVCAR-4, with Malme-3M, in the experiment on MDA-N, with MOLT-4, in the experiment with 786-0 and in the experiment with CAKI-1 was > 100 µM (inactive) in each case. Besides, the GI50 in the experiment with EKVX is > 100 µM (inactive).

`Cc1c(C(=O)NNc2ccccc2)n2c(S)nnc2c2ccccc12`: the GI50 is over 100 µM with HCT-15; > 100 µM (inactive) with KM12; > 100 µM (inactive) in the experiment with NCI-H460; > 100 µM (inactive) with OVCAR-5; > 100 µM (inactive) in the experiment on NCI-H226; > 100 µM (inactive) with SF-539. In addition, the GI50 in the experiment with RXF 393 was 82.2 µM (inactive); in the experiment with HL-60, > 100 µM (inactive); with HOP-92 it was > 100 µM (inactive); in the experiment on COLO 205, > 100 µM (inactive); with SK-OV-3, > 100 µM (inactive); with OVCAR-3, > 100 µM (inactive). For the same compound, the GI50 in the experiment with OVCAR-4 is > 100 µM (inactive); with CCRF-CEM it was > 100 µM (inactive); in the experiment on MDA-N, > 100 µM (inactive); in the experiment on MOLT-4 it was 83.2 µM (inactive); in the experiment with 786-0, > 100 µM (inactive); with CAKI-1, > 100 µM (inactive). Besides, the GI50 in the experiment with EKVX was > 100 µM (inactive).

Regarding `CCc1nnc(-n2c(C)nc3cc(Cl)ccc3c2=O)s1`, the GI50 in the experiment on HCT-15 was 44.1 µM; in the experiment on KM12, 38.5 µM (inactive); in the experiment on NCI-H460, 40.5 µM (inactive); in the experiment on OVCAR-5, > 100 µM (inactive); with NCI-H226 it was 43.1 µM (inactive); with RXF 393, 47.3 µM (inactive). Also, the GI50 in the experiment on HL-60 was 41 µM (inactive); in the experiment on HOP-92, 27 µM (inactive); in the experiment with COLO 205, 24.4 µM (inactive); in the experiment on SK-OV-3, 38.4 µM (inactive); in the experiment on OVCAR-3, 18.7 µM (inactive); in the experiment on OVCAR-4, 28.8 µM (inactive). In addition, the GI50 with Malme-3M was 16 µM (inactive); in the experiment on CCRF-CEM it was 19.6 µM (inactive); in the experiment on MDA-N, 13.3 µM (inactive); in the experiment on MOLT-4, 26.3 µM (inactive); in the experiment with 786-0, 26.5 µM (inactive); with CAKI-1, 80.9 µM (inactive). Moreover, in the experiment with EKVX, the GI50 is 49.2 µM (inactive).

Take `CN(C)c1ccc(/C=N/n2c(-c3ccccc3)nc3ccccc3c2=O)cc1`: the GI50 is 27.5 µM in the experiment on HCT-15; 24.8 µM (inactive) in the experiment on KM12; 35.4 µM (inactive) with NCI-H460; > 100 µM (inactive) in the experiment with OVCAR-5; 71.6 µM (inactive) in the experiment with NCI-H226; > 100 µM (inactive) with SF-539. Further, the GI50 in the experiment with HL-60 was 40 µM (inactive); in the experiment with HOP-92, 90.8 µM (inactive); in the experiment on COLO 205 it was 48.5 µM (inactive); in the experiment with SK-OV-3, 80.5 µM (inactive); in the experiment on OVCAR-3, > 100 µM (inactive); with OVCAR-4, 47.9 µM (inactive). Moreover, the GI50 with Malme-3M is > 100 µM (inactive); in the experiment on CCRF-CEM, 46.8 µM (inactive); with MDA-N it was 43.1 µM (inactive); in the experiment on MOLT-4, 34.4 µM (inactive); in the experiment with 786-0, > 100 µM (inactive); in the experiment with CAKI-1, 29.7 µM (inactive). Besides, in the experiment on EKVX, the GI50 was > 100 µM (inactive).

Consider `COC(=O)CN(CC(=O)NCCCBr)C1CCCCC1N(CC(=O)OC)CC(=O)OC` (centres undefined), for which the GI50 in the experiment on HCT-15 was over 100 µM; in the experiment on KM12, > 100 µM (inactive); with NCI-H460, > 100 µM (inactive); with OVCAR-5, > 100 µM (inactive); in the experiment on NCI-H226, > 100 µM (inactive); in the experiment on SF-539, > 100 µM (inactive). For the same compound, the GI50 is > 100 µM (inactive) with HL-60; 77.3 µM (inactive) in the experiment with HOP-92; > 100 µM (inactive) in the experiment on COLO 205; 32.3 µM (inactive) in the experiment with SK-OV-3; > 100 µM (inactive) in the experiment with OVCAR-3; > 100 µM (inactive) with OVCAR-4. The GI50 with CCRF-CEM, with MDA-N, in the experiment with MOLT-4, with 786-0, in the experiment with CAKI-1 and in the experiment with EKVX was > 100 µM (inactive) in each case.

Consider `CC1=NC(=Cc2ccccc2O)C(=O)N1n1c(-c2ccccc2)nc2ccccc2c1=O`, for which the GI50 is 39.4 µM with HCT-15; 67 µM (inactive) in the experiment with KM12; 30.3 µM (inactive) with NCI-H460; 40.5 µM (inactive) in the experiment with OVCAR-5; 51.1 µM (inactive) in the experiment on NCI-H226; 26.7 µM (inactive) in the experiment with SF-539. Further, the GI50 with RXF 393 is 31 µM (inactive); with HL-60, 35.6 µM (inactive); with HOP-92, 31.9 µM (inactive); in the experiment with COLO 205, 34.5 µM (inactive); with SK-OV-3 it was 33.3 µM (inactive); in the experiment with OVCAR-3, 26.7 µM (inactive). Moreover, the GI50 in the experiment with OVCAR-4 was 27.5 µM (inactive); in the experiment with Malme-3M it was 80.5 µM (inactive); in the experiment with CCRF-CEM it was 26.6 µM (inactive); in the experiment with MDA-N it was 41.3 µM (inactive); in the experiment on MOLT-4, 20.6 µM (inactive); with 786-0 it was 45.5 µM (inactive). Also, the GI50 with EKVX was 34.9 µM (inactive).

On to `NC(CCCCP(=O)(O)O)C(=O)O` (centres undefined), for which the GI50 in the experiment with HCT-15 was over 100 µM; in the experiment on KM12 it was > 100 µM (inactive); in the experiment on NCI-H460, > 100 µM (inactive); with OVCAR-5 it was > 100 µM (inactive); in the experiment with SF-539 it was > 100 µM (inactive); in the experiment with RXF 393 it was > 100 µM (inactive). Also, the GI50 in the experiment on HL-60, in the experiment on HOP-92, with COLO 205, with SK-OV-3, in the experiment with OVCAR-3 and in the experiment with OVCAR-4 was > 100 µM (inactive) in each case. Also, the GI50 with CCRF-CEM was > 100 µM (inactive); in the experiment with MDA-N it was > 100 µM (inactive); in the experiment with MOLT-4 it was > 100 µM (inactive); with CAKI-1 it was 14.3 µM (inactive); with EKVX it was > 100 µM (inactive).

`COC1=CC(=O)C2=C(C1=O)[C@H]1CC[C@]3(C)[C@@H](O)CC[C@H]3[C@@H]1CC2`: the GI50 in the experiment with HCT-15 is 18 µM; with KM12, 18.4 µM (inactive); in the experiment on NCI-H460, 18.3 µM (inactive); with OVCAR-5 it was 19.2 µM (inactive); in the experiment on NCI-H226, 17.7 µM (inactive); in the experiment with SF-539 it was 16.9 µM (inactive). For the same compound, the GI50 was 20.8 µM (inactive) in the experiment with RXF 393; 13 µM (inactive) in the experiment on HL-60; 21.6 µM (inactive) with HOP-92; 10.7 µM (inactive) in the experiment with COLO 205; 45 µM (inactive) in the experiment with SK-OV-3; 17.9 µM (inactive) in the experiment with OVCAR-3. Also, the GI50 is 17.2 µM (inactive) in the experiment with OVCAR-4; 6.67 µM (inactive) with CCRF-CEM; 17.5 µM (inactive) in the experiment on MDA-N; 3.48 µM (inactive) with MOLT-4; 19.5 µM (inactive) in the experiment with 786-0; 25 µM (inactive) with CAKI-1. For the same compound, in the experiment on EKVX, the GI50 is 16.8 µM (inactive).

As to `Cc1ccc(C)c(C(=N)c2ccccc2Cc2ccccc2)c1`, the GI50 is 24.7 µM with HCT-15; 20.2 µM (inactive) in the experiment on KM12; 14.7 µM (inactive) in the experiment on NCI-H460; 25.9 µM (inactive) in the experiment with OVCAR-5; 16.4 µM (inactive) with NCI-H226; 17.9 µM (inactive) in the experiment on SF-539. Besides, the GI50 with RXF 393 was 20 µM (inactive); in the experiment with HL-60 it was 18.5 µM (inactive); in the experiment on HOP-92, 17 µM (inactive); in the experiment on COLO 205, 26.9 µM (inactive); with SK-OV-3, 26.8 µM (inactive); in the experiment with OVCAR-3, 13.3 µM (inactive). Besides, the GI50 in the experiment with OVCAR-4 is 19.4 µM (inactive); in the experiment on Malme-3M, 13 µM (inactive); in the experiment on MDA-N, 23 µM (inactive); with MOLT-4, 15.1 µM (inactive); with 786-0, 17 µM (inactive); in the experiment with CAKI-1 it was 22.6 µM (inactive). In addition, in the experiment on EKVX, the GI50 is 19 µM (inactive).
